In patent US9809587B2, “Pesticidally active heterocyclic derivatives with sulphur containing substituents” (Syngenta Participations AG, priority 2014, dated 2017):

Experiments:
Format in all cases: in vivo
[1] = test system: Bemisia tabaci (Cotton White Fly); experiment: Bemisia tabaci (cotton white fly), sprayed cotton leaf discs; settings: foliar, 144 h, application rate of 200 ppm, adult white flies on cotton leaf discs, 6 days after incubation
Protocol: Example B1: Bemisia tabaci (Cotton White Fly)
(§1) Cotton leaf discs were placed on agar in 24-well microtiter plates and sprayed with aqueous test solutions prepared from 10′000 ppm DMSO stock solutions. After drying the leaf discs were infested with adult white flies. The samples were checked for mortality 6 days after incubation.

[2] = test system: Euschistus heros (Neotropical Brown Stink Bug); experiment: Euschistus heros (neotropical brown stink bug), sprayed soybean leaf; settings: 120 h, application rate of 200 ppm, N-2 nymphs on soybean leaf, 5 days after infestation
Protocol: Example B3: Euschistus heros (Neotropical Brown Stink Bug)
Soybean leaf on agar in 24-well microtiter plates were sprayed with aqueous test solutions prepared from 10′000 ppm DMSO stock solutions. After drying the leaf were infested with N-2 nymphs. The samples were assessed for mortality in comparison to untreated samples 5 days after infestation.

[3] = test system: Spodoptera littoralis (Egyqptian Cotton Leaf Worm); experiment: Spodoptera littoralis (Egyptian cotton leaf worm), sprayed cotton leaf discs; settings: foliar, 72 h, application rate of 200 ppm, L1 larvae on cotton leaf discs, 3 days after infestation
How it was run: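 Cotton leaf discs on agar were sprayed with aqueous dilutions made from 10′000 ppm DMSO stocks, then infested after drying with five L1 larvae. Mortality, anti-feedant effect and growth inhibition were scored against untreated discs 3 days after infestation. Control means at least one of these exceeds the untreated sample.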

[4] = test system: Plutella xylostella (Diamond Back Moth); experiment: Plutella xylostella (diamond back moth), treated artificial diet; settings: 120 h, application rate of 200 ppm, L2 larvae on artificial diet, 5 days after infestation, read-out: effect in at least one of the two categories (mortality or growth inhibition)
How it was run: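 Artificial diet treated with aqueous dilutions of DMSO stocks (10′000 ppm stock), dried, then infested with 10-15 L2 larvae per well. Mortality and growth inhibition assessed versus untreated controls 5 days after infestation.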

[5] = test system: Thrips tabaci (Onion Thrips); experiment: Thrips tabaci (onion thrips), sprayed sunflower leaf discs; settings: foliar, 144 h, application rate of 200 ppm, mixed ages on sunflower leaf discs, 6 days after infestation
Protocol: Example B10: Thrips tabaci (Onion Thrips)
as §1, with “Sunflower” for “Cotton”, “a thrips population of mixed ages.” for “adult white flies.”, “assessed” for “checked”, “infestation.” for “incubation.”

[6] = test system: Frankliniella occidentalis (Western Flower Thrips); experiment: Frankliniella occidentalis (western flower thrips), sprayed sunflower leaf discs; settings: foliar, 168 h, application rate of 200 ppm, mixed ages on sunflower leaf discs, 7 days after infestation
Protocol: Example B11: Frankliniella occidentalis (Western Flower Thrips)
Sunflower leaf discs were placed on agar in 24-well microtiter plates and sprayed with aqueous test solutions prepared from […] stock solutions. After drying the leaf discs were infested with a Frankliniella population of mixed ages. The samples were assessed for mortality 7 days after infestation.

[7] = test system: Myzus persicae (Green Peach Aphid); experiment: Myzus persicae (green peach aphid), roots of pea seedlings in test solution; settings: 144 h, test rate of 24 ppm, roots of infested pea seedlings in test solution, 6 days
Protocol: Example B5: Myzus persicae (Green Peach Aphid)
Roots of pea seedlings infested with an aphid population of mixed ages were placed directly in the aqueous test solutions prepared from 10′000 DMSO stock solutions. The samples were assessed for mortality 6 days after placing seedlings in test solutions.

[8] = test system: Myzus persicae (Green Peach Aphid); experiment: Myzus persicae (green peach aphid), sprayed sunflower leaf discs; settings: foliar, 144 h, application rate of 200 ppm, mixed ages on sunflower leaf discs, 6 days after infestation
Protocol: Example B4: Myzus persicae (Green Peach Aphid)
Sunflower leaf discs were placed on agar in a 24-well microtiter plate and sprayed with aqueous test solutions prepared from 10′000 ppm DMSO stock solutions. After drying, the leaf discs were infested with an aphid population of mixed ages. The samples were assessed for mortality 6 days after infestation.

[9] = test system: Spodoptera littoralis (Egyqptian Cotton Leaf Worm); experiment: Spodoptera littoralis (Egyptian cotton leaf worm), compound in agar taken up by lettuce roots; settings: 144 h, test rate of 12.5 ppm, uptake by lettuce roots from agar, 6 days after infestation, read-out: effect in at least one of the three categories (mortality, anti-feedancy, or growth inhibition)
How it was run: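 Compound mixed into agar from a 10′000 ppm DMSO stock and taken up over 7 days by lettuce roots; cut leaves then infested with Spodoptera eggs. Mortality, anti-feedant effect and growth inhibition scored against untreated samples 6 days after infestation.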

[10] = test system: Diabrotica balteata (Corn Root Worm); experiment: Diabrotica balteata (corn root worm), sprayed maize sprouts; settings: 96 h, application rate of 200 ppm, L2 larvae on maize sprouts, 4 days after infestation
Protocol: Example B2: Diabrotica balteata (Corn Root Worm)
Maize sprouts, placed on an agar layer in 24-well microtiter plates were treated with aqueous test solutions prepared from 10′000 ppm DMSO stock solutions by spraying. After drying, the plates were infested with L2 larvae (6 to 10 per well). The samples were assessed for mortality and growth inhibition in comparison to untreated samples 4 days after infestation.

[11] = test system: Aedes aegypti (Yellow Fever Mosquito); experiment: Activity against Aedes aegypti (yellow fever mosquito), dried deposits in tissue culture plates; settings: application rate of 200 ppm in ethanol, adult females, after 48 h
Protocol: Example B12: Activity Against Aedes aegypti (Yellow Fever Mosquito)
Test solutions, at an application rate of 200 ppm in ethanol, were applied to 12-well tissue culture plates. Once the deposits were dry, five, two to five days old adult female Aedes aegypti were added to each well, and sustained with a 10% sucrose solution in a cotton wool plug. Assessment of knockdown was made one hour after introduction, and mortality was assessed at 24 and 48 hours after introduction.
The following compounds gave at least 80% control of Aedes aegypti after 48 h: […]

CCS(=O)(=O)c1cc(-c2cncnc2)cnc1-c1nc2cc(C(F)(F)F)ncc2n1C [Compound P8]
≥ 80%: mortality at 200 ppm [1] | mortality at 200 ppm [2] | percent control (mortality, anti-feedant effect or growth inhibition) at 200 ppm [3] | percent effect (mortality or growth inhibition) at 200 ppm [4] | mortality at 200 ppm [5] | mortality at 200 ppm [6] | mortality at 24 ppm [7] | mortality at 200 ppm [8]

CCS(=O)(=O)c1cc(-c2ncc(Cl)cn2)cnc1-c1nc2cc(C(F)(F)F)ncc2n1C [Compound P11]
≥ 80%: mortality at 200 ppm [1] | mortality at 200 ppm [2] | percent control (mortality, anti-feedancy or growth inhibition) at 12.5 ppm [9] | percent control (mortality, anti-feedant effect or growth inhibition) at 200 ppm [3] | mortality at 200 ppm [10] | pest or weed control at 200 ppm [11] | percent effect (mortality or growth inhibition) at 200 ppm [4] | mortality at 200 ppm [5] | mortality at 200 ppm [6] | mortality at 200 ppm [8]

CCS(=O)(=O)c1cc(-n2cc(Cl)cn2)cnc1-c1nc2cc(C(F)(F)F)ncc2n1C [Compound P16, 2-[5-(4-chloropyrazol-1-yl)-3-ethylsulfonyl-2-pyridyl]-3-methyl-6-(trifluoromethyl)imidazo[4,5-c]pyridine]
≥ 80%: mortality at 200 ppm [1] | mortality at 200 ppm [2] | percent control (mortality, anti-feedancy or growth inhibition) at 12.5 ppm [9] | percent control (mortality, anti-feedant effect or growth inhibition) at 200 ppm [3] | mortality at 200 ppm [10] | pest or weed control at 200 ppm [11] | percent effect (mortality or growth inhibition) at 200 ppm [4] | mortality at 200 ppm [5] | mortality at 200 ppm [6] | mortality at 200 ppm [8]

CCS(=O)(=O)c1cc(-n2cc(Br)cn2)cnc1-c1nc2cc(C(F)(F)F)ncc2n1C [Compound P17]
≥ 80%: mortality at 200 ppm [1] | percent control (mortality, anti-feedant effect or growth inhibition) at 200 ppm [3] | mortality at 200 ppm [10] | pest or weed control at 200 ppm [11] | percent effect (mortality or growth inhibition) at 200 ppm [4] | mortality at 200 ppm [5] | mortality at 200 ppm [6]

CCS(=O)(=O)c1cc(-c2ccc(Cl)cn2)cnc1-c1nc2cc(C(F)(F)F)ncc2n1C [Compound P20]
≥ 80%: mortality at 200 ppm [1] | mortality at 200 ppm [2] | percent control (mortality, anti-feedancy or growth inhibition) at 12.5 ppm [9] | percent control (mortality, anti-feedant effect or growth inhibition) at 200 ppm [3] | mortality at 200 ppm [10] | pest or weed control at 200 ppm [11] | percent effect (mortality or growth inhibition) at 200 ppm [4] | mortality at 200 ppm [5] | mortality at 200 ppm [6] | mortality at 200 ppm [8]

CCS(=O)(=O)c1cc(-n2cc(C(F)(F)F)cn2)cnc1-c1nc2cc(C(F)(F)F)ncc2n1C [Compound P85]
≥ 80%: mortality at 200 ppm [1] | mortality at 200 ppm [2] | percent control (mortality, anti-feedancy or growth inhibition) at 12.5 ppm [9] | percent control (mortality, anti-feedant effect or growth inhibition) at 200 ppm [3] | mortality at 200 ppm [10] | pest or weed control at 200 ppm [11] | percent effect (mortality or growth inhibition) at 200 ppm [4] | mortality at 200 ppm [5] | mortality at 200 ppm [6] | mortality at 200 ppm [8]

CCS(=O)(=O)c1cc(-c2nccc(C(F)(F)F)n2)cnc1-c1nc2cc(C(F)(F)F)ncc2n1C [Compound P100]
≥ 80%: mortality at 200 ppm [1] | mortality at 200 ppm [2] | percent control (mortality, anti-feedancy or growth inhibition) at 12.5 ppm [9] | percent control (mortality, anti-feedant effect or growth inhibition) at 200 ppm [3] | mortality at 200 ppm [10] | pest or weed control at 200 ppm [11] | percent effect (mortality or growth inhibition) at 200 ppm [4] | mortality at 200 ppm [5] | mortality at 200 ppm [6] | mortality at 200 ppm [8]

CCS(=O)(=O)c1cc(-n2cnc(Cl)n2)cnc1-c1nc2cc(C(F)(F)F)ncc2n1C [Compound P106]
≥ 80%: mortality at 200 ppm [1] | mortality at 200 ppm [2] | percent control (mortality, anti-feedant effect or growth inhibition) at 200 ppm [3] | mortality at 200 ppm [10] | percent effect (mortality or growth inhibition) at 200 ppm [4] | mortality at 200 ppm [5] | mortality at 200 ppm [6] | mortality at 24 ppm [7] | mortality at 200 ppm [8]
